Assay results as given in patent US7595395B2, “Gabaergic agents to treat memory deficits” (priority 2005, dated 2009).

Experiments:
α2β3γ2 GABAA receptor = α2β3γ2 GABAA receptor (Rattus norvegicus, UniProt P18508+P23576); test: Two-electrode voltage clamp in Xenopus oocytes, α2β3γ2; settings: oocytes
C57B1/6 mice = test: Audio cued fear conditioning; assay type: in vivo; settings: scopolamine impairment
From the text: Further, animal data for FIGS. 22-26 were obtained using experimental methodologies described in a previously published reference, Influence of benzodiazepine binding site ligands on fear-conditioned contextual memory European journal of Pharmacology, Volume 426, Issues 1-2, 24 Aug. 2001, Pages 45-54, Timothy M. DeLorey, Richard C. Lin, Brian McBrady, Xiaohui He, James M. Cook, Jelveh Lameh and Gilda H. Loew, which is incorporated by reference as if fully set forth here in its entirety. Selected sections of the reference are provided below:
Male C57B1/6 mice were obtained from Charles Rivers Laboratories (Holister, Calif.) at 6 weeks of age. […] All animal protocols used in this study conform to the guidelines determined by the National Institute of Health (USA) Office for Protection from Research Risks and are approved by the Animal Care and Use Committee of the Palo Alto Veterans Administration Medical Center, Palo, Alto, Calif. […]
Before testing each day, the mice were moved to a holding room and allowed to acclimate for at least 30 min. […] Twenty-four hours later, contextual memory was assessed by placing the mice back into the freshly rescented (0.3% Ammonium hydroxide) conditioning chambers in which they were trained, for a 4-min test period in the absence of footshock. […] Data were analyzed by one-way analysis of variance(ANOVA) using GraphPad PRISM 2.01 (GraphPad Software). […]

[1] = molecular target: T1, α1β3γ2 benzodiazepine receptor GABA(A) isoform (UniProt P14867+P18507); test: Radioligand competition binding, α1β3γ2 BzR/GABA(A) isoform; set-up: rows headed: Ki α1 (in words); other: text; HEK-T cells (Roth et al.); species or system human and rat; settings: HEK-T cells (Roth et al.)
T1 sequence (P14867 1-456): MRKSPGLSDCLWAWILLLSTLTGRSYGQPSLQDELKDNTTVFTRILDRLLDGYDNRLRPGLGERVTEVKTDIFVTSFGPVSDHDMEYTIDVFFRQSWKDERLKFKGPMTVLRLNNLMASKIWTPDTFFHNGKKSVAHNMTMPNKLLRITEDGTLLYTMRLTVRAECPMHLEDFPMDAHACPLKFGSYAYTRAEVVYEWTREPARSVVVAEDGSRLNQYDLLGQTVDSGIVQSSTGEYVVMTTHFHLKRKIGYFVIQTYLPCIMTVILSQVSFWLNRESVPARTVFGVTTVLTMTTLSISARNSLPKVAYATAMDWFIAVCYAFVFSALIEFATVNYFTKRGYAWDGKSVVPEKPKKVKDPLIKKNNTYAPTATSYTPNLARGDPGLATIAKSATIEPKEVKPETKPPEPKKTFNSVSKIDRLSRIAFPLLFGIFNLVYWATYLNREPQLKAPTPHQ
T1 sequence (P18507 1-475): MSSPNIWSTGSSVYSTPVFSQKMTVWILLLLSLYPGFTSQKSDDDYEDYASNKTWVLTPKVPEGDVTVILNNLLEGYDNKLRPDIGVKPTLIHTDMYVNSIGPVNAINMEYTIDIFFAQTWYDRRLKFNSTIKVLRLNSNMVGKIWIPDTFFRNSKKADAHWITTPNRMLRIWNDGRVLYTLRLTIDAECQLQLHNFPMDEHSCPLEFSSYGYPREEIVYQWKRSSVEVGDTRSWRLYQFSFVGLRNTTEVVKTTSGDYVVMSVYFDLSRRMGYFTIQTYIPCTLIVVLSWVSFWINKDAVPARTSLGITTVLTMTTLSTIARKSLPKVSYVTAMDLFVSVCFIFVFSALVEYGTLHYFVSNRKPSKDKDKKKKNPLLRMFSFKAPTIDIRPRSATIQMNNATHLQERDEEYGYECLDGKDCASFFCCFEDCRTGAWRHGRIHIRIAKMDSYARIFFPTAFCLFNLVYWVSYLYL
Procedure: The affinity of all ligands at the 6 major recombinant GABAA/BzR subtypes was measured by competition for [^3H]Ro15-1788 binding to HEK-T cells expressing both human and rat GABAA/Bz receptors of composition α1β2γ2 (α1), α2β2γ2 (α2), α3β2γ2 (α3), α4β2γ2 (α4), α5β2γ2 (α5) and α6β2γ2 (α6). It is well known that the β2 and β3 subunits can be interchanged with no effect on Bz ligand affinity or efficacy. […] These studies are similar to those performed in the laboratory of Bryan Roth who has already expressed the receptors employing the work of Kucken et. al. and Gray et. al.
In brief, for membrane preparations, the cells were scraped on to the ice and diluted into 5 mL of phosphate buffered saline (pH=7.40) and cells pelleted by centrifugation for 5 min. at 4° C. The pellet was resuspended in 1 mL of 50 mM Tris-acetate buffer (pH 7.4) and centrifuged at 18,000 g for 20 min. […] Each pellet were diluted to 6 mL and then 100 μL of membranes were incubated with approximately 1 nM final concentration of [^3H]Ro 15-1788 in a total volume of 250 μL together with serial dilutions of test compound for 90 min. on ice. The membranes were harvested in polyethyleneimine-pretreated Whatman GF/C filters and after drying and addition of scintillation cocktail, counted in a scintillation counter. […]

Sequence of α2β3γ2 GABAA receptor (P23576 29-451): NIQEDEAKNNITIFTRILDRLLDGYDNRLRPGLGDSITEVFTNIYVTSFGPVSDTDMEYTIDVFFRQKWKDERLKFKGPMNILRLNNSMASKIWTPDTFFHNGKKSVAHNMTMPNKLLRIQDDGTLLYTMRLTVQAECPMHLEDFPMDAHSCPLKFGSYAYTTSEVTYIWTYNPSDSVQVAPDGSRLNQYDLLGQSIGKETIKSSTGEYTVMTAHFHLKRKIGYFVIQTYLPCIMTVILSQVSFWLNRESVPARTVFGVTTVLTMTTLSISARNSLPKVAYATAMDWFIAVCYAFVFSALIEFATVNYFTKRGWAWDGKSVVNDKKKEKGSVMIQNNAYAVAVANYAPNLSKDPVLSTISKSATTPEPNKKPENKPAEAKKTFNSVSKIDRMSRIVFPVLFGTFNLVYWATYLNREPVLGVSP
Sequence of α2β3γ2 GABAA receptor (P63079 26-473 partner): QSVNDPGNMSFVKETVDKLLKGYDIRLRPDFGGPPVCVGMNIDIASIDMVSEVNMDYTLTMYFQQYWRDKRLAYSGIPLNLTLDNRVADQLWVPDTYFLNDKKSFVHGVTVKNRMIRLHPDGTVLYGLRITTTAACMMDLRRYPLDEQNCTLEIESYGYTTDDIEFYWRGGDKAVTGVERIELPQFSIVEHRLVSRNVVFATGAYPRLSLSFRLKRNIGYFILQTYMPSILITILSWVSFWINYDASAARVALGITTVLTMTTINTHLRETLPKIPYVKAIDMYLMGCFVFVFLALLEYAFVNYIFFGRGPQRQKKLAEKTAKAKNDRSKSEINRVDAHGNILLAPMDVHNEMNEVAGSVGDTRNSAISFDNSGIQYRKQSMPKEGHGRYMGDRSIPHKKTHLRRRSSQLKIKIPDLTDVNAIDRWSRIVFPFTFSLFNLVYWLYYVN
Sequence of α2β3γ2 GABAA receptor (P18508 39-466): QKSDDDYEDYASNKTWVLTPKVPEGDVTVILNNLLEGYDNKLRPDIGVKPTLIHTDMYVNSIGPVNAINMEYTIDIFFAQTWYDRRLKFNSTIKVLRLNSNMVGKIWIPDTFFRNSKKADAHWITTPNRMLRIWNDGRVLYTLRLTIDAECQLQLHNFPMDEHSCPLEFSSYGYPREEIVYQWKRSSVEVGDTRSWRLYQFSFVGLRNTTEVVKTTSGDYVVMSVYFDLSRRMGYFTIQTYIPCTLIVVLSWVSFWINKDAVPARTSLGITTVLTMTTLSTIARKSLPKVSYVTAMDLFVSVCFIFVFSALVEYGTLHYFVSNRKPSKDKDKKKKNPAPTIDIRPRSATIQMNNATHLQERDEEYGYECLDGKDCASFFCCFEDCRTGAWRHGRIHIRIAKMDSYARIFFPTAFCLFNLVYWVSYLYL

| SMILES | efficacy / modulation of GABA elicited currents at α2 (in words) (α2β3γ2 GABAA receptor) | audio cued memory / audio cued fear conditioning (in words) (C57B1/6 mice; listed as XLI356) | audio cued memory / audio cued fear conditioning (in words) (C57B1/6 mice; listed as Xli356) | Ki α1 (in words) [1] |
| --- | --- | --- | --- | --- |
| COCc1ncn2c1CN(C)C(=O)c1cc(Cl)ccc1-2 [PWZ-029, methyl(8-chloro-5,6-dihydro-5-methyl-6-oxo-4H-imidazo[1,5-α][1,4]benzodiazepin-3-yl)methyl ether] | very, very weak agonist activity |  |  |  |
| CCc1ccc2c(c1)C(=O)N(C)Cc1c(C(=O)OCCCOC(=O)c3ncn4c3CN(C)C(=O)c3cc(CC)ccc3-4)ncn1-2 [XLi356, 1,3-Bis(8-ethyl-5,6-dihydro-5-methyl-6-oxo-4H-imidazo[1,5a][1,4]benzodiazepine-3-carboxy)propyl diester] |  | not able to reverse this type of memory | no activity | no affinity |
